Measured values published in patent US20150023989A1, “NEW ANTIBODY DRUG CONJUGATES (ADCS) AND THE USE THEREOF” (SEATTLE GENETICS, INC., priority 2011, published 2015).
Where a name gives a salt, the structure may show the parent alone. Where a SMILES comes first, the peptide text is derived from it. [ ]: non-standard residue; d: D form. The star is where a group is joined. X2 = CC(C)[C@@H](C(=O)*)N(C)CCCCCCN1C(=O)CC(SC[C@H](N)C(=O)O)C1=O; X3 = CC(C)[C@@H](C(=O)*)N(C)CCOCCOCCOCCC(=O)NCCCC[C@H](N)C(=O)O; X1 = CC(C)[C@@H](C(=O)*)N(C)CCCCCC(=O)NCCCC[C@H](N)C(=O)O; Dolaproine = CO[C@@H]([C@@H]1CCCN1)[C@@H](C)C(=O)O; Dil = CC[C@H](C)[C@H](NC)[C@@H](CC(=O)O)OC; X4 = C[C@@H](N*)[C@@H](O)c1ccccc1; Oxazinan2yl(1,2) = C1CCN(*)OC1; NMeV = CN[C@H](C(=O)O)C(C)C

How the values were obtained:
[1] = Flux assay using Caco-2 cells (cell permeability); format: in vitro ADME; conditions: human, 2 hours incubation
Protocol: (§1) The cell permeability of a substance can be investigated by means of in vitro testing in a flux assay using Caco-2 cells [M. D. Troutman and D. R. Thakker, Pharm. Res. 20 (8), 1210-1224 (2003)]. For this purpose, the cells were cultured for 15-16 days on 24-well filter plates. For the determination of permeation, the respective working example was applied in a HEPES buffer to the cells either apically (A) or basally (B) and incubated for 2 hours. After 0 hours and after 2 hours, samples were taken from the cis and trans compartments. The samples were separated by HPLC (Agilent 1200, Böblingen, Germany) using reverse phase columns. The HPLC system was coupled via a Turbo Ion Spray Interface to a Triple Quadropol mass spectrometer API 4000 (Applied Biosystems Applera, Darmstadt, Germany). The permeability was evaluated on the basis of a Papp value, which was calculated using the formula published by Schwab et al. [D. Schwab et al., J. Med. Chem. 46, 1716-1725 (2003)].

[2] = test system: tubulin; experiment: Fluorescence-based microtubule polymerisation assay; format: biochemical; conditions: rate at 1 μM MMAF set at 100%
Protocol: Tubulin polymerization was investigated using the “Fluorescence-based Microtubule Polymerisation Assay Kit” from Cytoskeleton (Denver, Colo., USA; order number: BK011). With this assay, GTP is added to unpolymerized tubulin, allowing polymerization to take place spontaneously. The assay is based on the binding of the fluorophore 4′,6-diamidino-2-phenylindole (DAPI) to tubulin. Free and bound DAPI can be differentiated on the basis of different emission spectra.
In addition to the buffer control, paclitaxel, with a polymerization-increasing effect, and vinblastin, with a polymerization inhibiting effect, were run additionally as assay controls. Measurement was carried out using 96-well plates with a half base area. The kinetics of the tubulin polymerization were monitored in a Fluorimeter at 37° C. for 1 hour. The excitation wavelength was 355 nm, and emission was monitored at 460 nm. For the region of linear increase within the first 10 minutes, a calculation was made of the change in fluorescence per minute (ΔF/min), which represents the polymerization rate of the microtubuli. The potency of the test substances was quantified on the basis of their respective reduction of the polymerization rate. Table 6 below gives data for the influence of representative working examples on tubulin polymerization.

[3] = test system: Caco-2 cells; experiment: Flux assay using Caco-2 cells (cell permeability); format: in vitro ADME; conditions: 2 hours incubation
Protocol: as §1

Q: With `CC[C@H](C)[C@@H]([C@@H](CC(=O)N1CCC[C@H]1[C@H](OC)[C@@H](C)C(=O)N[C@@H](Cc1c[nH]c2ccccc12)C(=O)N1CCCCO1)OC)N(C)C(=O)[C@@H](NC(=O)[C@H](C(C)C)N(C)CCCCCC(=O)NCCCC[C@H](N)C(=O)O)C(C)C` [Example 18, N-(6-{[(5S)-5-Amino-5-carboxypentyl]amino}-6-oxohexyl)-N-methyl-L-valyl-N-[(3R,4S,5S)-1-{(2S)-2-[(1R,2R)-3-{[(2S)-3-(1H-indol-3-yl)-1-(1,2-oxazinan-2-yl)-1-oxopropan-2-yl]amino}-1-methoxy-2-methyl-3-oxopropyl]pyrrolidin-1-yl}-3-methoxy-5-methyl-1-oxoheptan-4-yl]-N-methyl-L-valinamide trifluoroacetate] (X1-V[Dil][Dolaproine]W-{Oxazinan2yl(1,2)}) as the compound, how does the Papp B→A at 2 h [1] read?
A: 0.2 ×10⁻⁶ cm/s

Q: What about the “Tubulin polymerization in the presence of toxophore” value (“Tubulin polymerization” for short) ([2]; toxophore 1 μM) of the same compound?
A: 45%

Q: What about the “Tubulin polymerization” value ([2]; toxophore 10 μM) of the same compound?
A: 1%

Q: With `CC[C@H](C)[C@@H]([C@@H](CC(=O)N1CCC[C@H]1[C@H](OC)[C@@H](C)C(=O)N[C@@H](Cc1c[nH]c2ccccc12)C(=O)O)OC)N(C)C(=O)[C@@H](NC(=O)[C@H](C(C)C)N(C)CCCCCC(=O)NCCCC[C@H](N)C(=O)O)C(C)C` [Example 19, N-(6-{[(5S)-5-Amino-5-carboxypentyl]amino}-6-oxohexyl)-N-methyl-L-valyl-N-[(3R,4S,5S)-1-{(2S)-2-[(1R,2R)-3-{[(1S)-1-carboxy-2-(1H-indol-3-yl)ethyl]amino}-1-methoxy-2-methyl-3-oxopropyl]pyrrolidin-1-yl}-3-methoxy-5-methyl-1-oxoheptan-4-yl]-N-methyl-L-valinamide] (X1-V[Dil][Dolaproine]W-OH) as the compound, how does the Papp B→A at 2 h [1] read?
A: 0.1 ×10⁻⁶ cm/s

Q: What about the “Tubulin polymerization” value ([2]; toxophore 1 μM) of the same compound?
A: 80%

Q: And the “Tubulin polymerization” value ([2]; toxophore 10 μM)?
A: 14%

Q: Which “Tubulin polymerization” value ([2]; toxophore 1 μM) does the source give for `CC[C@H](C)[C@@H]([C@@H](CC(=O)N1CCC[C@H]1[C@H](OC)[C@@H](C)C(=O)N[C@@H](Cc1c[nH]c2ccccc12)C(=O)N1CCCCO1)OC)N(C)C(=O)[C@@H](NC(=O)[C@H](C(C)C)N(C)CCOCCOCCOCCC(=O)NCCCC[C@H](N)C(=O)O)C(C)C` [Example 20, N-[(18S)-18-Amino-18-carboxy-12-oxo-3,6,9-trioxa-13-azaoctadec-1-yl]-N-methyl-L-valyl-N-[(3R,4S,5S)-1-{(2S)-2-[(1R,2R)-3-{[(2S)-3-(1H-indol-3-yl)-1-(1,2-oxazinan-2-yl)-1-oxopropan-2-yl]amino}-1-methoxy-2-methyl-3-oxopropyl]pyrrolidin-1-yl}-3-methoxy-5-methyl-1-oxoheptan-4-yl]-N-methyl-L-valinamide trifluoroacetate] (X3-V[Dil][Dolaproine]W-{Oxazinan2yl(1,2)}) here?
A: 60%

Q: What about the “Tubulin polymerization” value ([2]; toxophore 10 μM) of the same compound?
A: 0%

Q: Which results are given for `CC[C@H](C)[C@@H]([C@@H](CC(=O)N1CCC[C@H]1[C@H](OC)[C@@H](C)C(=O)N[C@@H](Cc1c[nH]c2ccccc12)C(N)=O)OC)N(C)C(=O)[C@@H](NC(=O)[C@H](C(C)C)N(C)CCCC(=O)NNC(=O)CCCCCN1C(=O)CC(SC[C@H](N)C(=O)O)C1=O)C(C)C` (stereo partly drawn) [Example 21, N-(4-{2-[6-(3-{[(2R)-2-Amino-2-carboxyethyl]sulphanyl}-2,5-dioxopyrrolidin-1-yl)hexanoyl]hydrazino}-4-oxobutyl)-N-methyl-L-valyl-N-[(3R,4S,5S)-1-{(2S)-2-[(1R,2R)-3-{[(2S)-1-amino-3-(1H-indol-3-yl)-1-oxopropan-2-yl]amino}-1-methoxy-2-methyl-3-oxopropyl]pyrrolidin-1-yl}-3-methoxy-5-methyl-1-oxoheptan-4-yl]-N-methyl-L-valinamide]?
A: Papp B→A at 2 h [1]: 0.2 ×10⁻⁶ cm/s; Tubulin polymerization in the presence of toxophore ([2]; toxophore 1 μM): 88%; Tubulin polymerization in the presence of toxophore ([2]; toxophore 10 μM): 25%

Q: For `CC[C@H](C)[C@@H]([C@@H](CC(=O)N1CCC[C@H]1[C@H](OC)[C@@H](C)C(=O)N[C@@H](Cc1c[nH]c2ccccc12)C(=O)O)OC)N(C)C(=O)[C@@H](NC(=O)[C@H](C(C)C)N(C)CCCCCCN1C(=O)CC(SC[C@H](N)C(=O)O)C1=O)C(C)C` (stereo partly drawn) [Example 23, N-[6-(3-{[(2R)-2-Amino-2-carboxyethyl]sulphanyl}-2,5-dioxopyrrolidin-1-yl)hexyl]-N-methyl-L-valyl-N-[(3R,4S,5S)-1-{(2S)-2-[(1R,2R)-3-{[(1S)-1-carboxy-2-(1H-indol-3-yl)ethyl]amino}-1-methoxy-2-methyl-3-oxopropyl]pyrrolidin-1-yl}-3-methoxy-5-methyl-1-oxoheptan-4-yl]-N-methyl-L-valinamide] (X2-V[Dil][Dolaproine]W-OH), which Papp B→A at 2 h [1] is on record?
A: 0.1 ×10⁻⁶ cm/s

Q: Which “Tubulin polymerization” value ([2]; toxophore 1 μM) does the source give for `CC[C@H](C)[C@@H]([C@@H](CC(=O)N1CCC[C@H]1[C@H](OC)[C@@H](C)C(=O)N[C@@H](Cc1c[nH]c2ccccc12)C(=O)N1CCCCO1)OC)N(C)C(=O)[C@@H](NC(=O)[C@H](C(C)C)N(C)CCCCCCN1C(=O)CC(SC[C@H](N)C(=O)O)C1=O)C(C)C` (stereo partly drawn) [Example 24, N-[6-(3-{[(2R)-2-Amino-2-carboxyethyl]sulphanyl}-2,5-dioxopyrrolidin-1-yl)hexyl]-N-methyl-L-valyl-N-[(3R,4S,5S)-1-{(2S)-2-[(1R,2R)-3-{[(2S)-3-(1H-indol-3-yl)-1-(1,2-oxazinan-2-yl)-1-oxopropan-2-yl]amino}-1-methoxy-2-methyl-3-oxopropyl]pyrrolidin-1-yl}-3-methoxy-5-methyl-1-oxoheptan-4-yl]-N-methyl-L-valinamide] (X2-V[Dil][Dolaproine]W-{Oxazinan2yl(1,2)}) here?
A: 121%

Q: And the “Tubulin polymerization” value ([2]; toxophore 10 μM)?
A: 35%

Q: Which Papp B→A at 2 h [1] does the source give for `CC[C@H](C)[C@@H]([C@@H](CC(=O)N1CCC[C@H]1[C@H](OC)[C@@H](C)C(=O)N[C@@H](Cc1ccc(O)cc1)C(=O)N1CCCCO1)OC)N(C)C(=O)[C@@H](NC(=O)[C@H](C(C)C)N(C)CCCCCC(=O)NCCCC[C@H](N)C(=O)O)C(C)C` [Example 36, N-(6-{[(5S)-5-Amino-5-carboxypentyl]amino}-6-oxohexyl)-N-methyl-L-valyl-N-[(3R,4S,5S)-1-{(2S)-2-[(1R,2R)-3-{[(2S)-3-(4-hydroxyphenyl)-1-(1,2-oxazinan-2-yl)-1-oxopropan-2-yl]amino}-1-methoxy-2-methyl-3-oxopropyl]pyrrolidin-1-yl}-3-methoxy-5-methyl-1-oxoheptan-4-yl]-N-methyl-L-valinamide trifluoroacetate] (X1-V[Dil][Dolaproine]Y-{Oxazinan2yl(1,2)}) here?
A: 0.15 ×10⁻⁶ cm/s

Q: For `CC[C@H](C)[C@@H]([C@@H](CC(=O)N1CCC[C@H]1[C@H](OC)[C@@H](C)C(=O)N[C@@H](Cc1ccc(O)cc1)C(=O)O)OC)N(C)C(=O)[C@@H](NC(=O)[C@H](C(C)C)N(C)CCCCCC(=O)NCCCC[C@H](N)C(=O)O)C(C)C` [Example 37, N-(6-{[(5S)-5-Amino-5-carboxypentyl]amino}-6-oxohexyl)-N-methyl-L-valyl-N-[(3R,4S,5S)-1-{(2S)-2-[(1R,2R)-3-{[(1S)-1-carboxy-2-(4-hydroxyphenyl)ethyl]amino}-1-methoxy-2-methyl-3-oxopropyl]pyrrolidin-1-yl}-3-methoxy-5-methyl-1-oxoheptan-4-yl]-N-methyl-L-valinamide trifluoroacetate] (X1-V[Dil][Dolaproine]Y-OH), which Papp B→A at 2 h [1] is on record?
A: 0.09 ×10⁻⁶ cm/s

Q: With `CC[C@H](C)[C@@H]([C@@H](CC(=O)N1CCC[C@H]1[C@H](OC)[C@@H](C)C(=O)N[C@H](C)[C@@H](O)c1ccccc1)OC)N(C)C(=O)[C@@H](NC(=O)[C@@H](NC)C(C)C)C(C)C` [monomethylauristatin E (MMAE), monomethylauristatin E, reference compound] (H-[NMeV]V[Dil][Dolaproine]-X4) as the compound, how does the “Papp (B-A)” value [3] read?
A: 7.3 ×10⁻⁶ cm/s

Q: Which results are given for `CC[C@H](C)[C@@H]([C@@H](CC(=O)N1CCC[C@H]1[C@H](OC)[C@@H](C)C(=O)N[C@@H](Cc1ccccc1)C(=O)O)OC)N(C)C(=O)[C@@H](NC(=O)[C@@H](NC)C(C)C)C(C)C` [monomethylauristatin F (MMAF), monomethylauristatin F, reference compound] (H-[NMeV]V[Dil][Dolaproine]F-OH)?
A: Papp (B-A) [3]: 7.3 ×10⁻⁶ cm/s; Tubulin polymerization in the presence of toxophore ([2]; toxophore 1 μM): 100%; Tubulin polymerization in the presence of toxophore ([2]; toxophore 10 μM): 34%
